Test results taken from article PMC3897212 (Journal of pharmacokinetics and pharmacodynamics, 2013).
Like-named read-outs stand apart in the source and are kept apart here. Marks after values point to notes of the source that are not given here.

How the values were obtained:
[1] = Time course tissue distribution / pharmacokinetic study in mice; type: in vivo, female FVB mice; details: mouse; for AUC(0-t) / half-life: female, FVB, po
[2] = Mouse PBPK model of lapatinib
[3] = Human PBPK model of lapatinib
[4] = Single 100 mg dose plasma pharmacokinetic study in healthy subjects; type: in vivo; details: human, po
[5] = system: albumin and alpha-1 acid glycoprotein; details: cited from earlier work
[6] = human plasma, cited from earlier work
[7] = mice; owing to ABCB1- and ABCB2-mediated efflux; cited from earlier work
[8] = system: metastatic breast cancer cells in the brains of mice; details: cited from earlier work
[9] = system: brain metastases from HER2-positive breast cancer; details: human patients with brain metastases from HER2-positive breast cancer; cited from earlier work
[10] = patients administered lapatinib; cited from earlier work
CYP3A = details: cited from earlier work
[11] = slowly perfused tissue, 30 mg/kg
[12] = slowly perfused tissue, 60 mg/kg
[13] = slowly perfused tissue, 90 mg/kg
[14] = first-order, parameter estimate (CV%) fitted to 60 mg/kg cohort
[15] = parameter estimate (CV%) fitted to 60 mg/kg cohort

Structure (SMILES): CS(=O)(=O)CCNCc1ccc(-c2ccc3ncnc(Nc4ccc(OCc5cccc(F)c5)c(Cl)c4)c3c2)o1 [lapatinib, N-{3-chloro-4-[(3-fluorobenzyl)oxy]phenyl}-6-[5-({[2-(methylsulfonyl)ethyl]amino}methyl)-2-furyl]-4-quinazolinamine]
- AUC(0-t) ([1]; brain, 30 mg/kg): 0.441 µM·h
- AUC(0-t) ([1]; brain, 60 mg/kg): 1.31 µM·h
- half-life ([1]; brain, 60 mg/kg): 3.12 h
- AUC(0-t) ([1]; brain, 90 mg/kg): 2.26 µM·h
- half-life ([1]; brain, 90 mg/kg): 1.76 h
- AUC(0-t) ([1]; heart, 30 mg/kg): 7.16 µM·h
- half-life ([1]; heart, 30 mg/kg): 2.59 h
- AUC(0-t) ([1]; heart, 60 mg/kg): 26.5 µM·h
- half-life ([1]; heart, 60 mg/kg): 3.05 h
- AUC(0-t) ([1]; heart, 90 mg/kg): 55.2 µM·h
- half-life ([1]; heart, 90 mg/kg): 2.32 h
- AUC(0-t) ([1]; intestine, 30 mg/kg): 79.9 µM·h
- half-life ([1]; intestine, 30 mg/kg): 2.79 h
- AUC(0-t) ([1]; intestine, 60 mg/kg): 235 µM·h
- half-life ([1]; intestine, 60 mg/kg): 3.05 h
- AUC(0-t) ([1]; intestine, 90 mg/kg): 260 µM·h
- half-life ([1]; intestine, 90 mg/kg): 2.55 h
- AUC(0-t) ([1]; kidney, 30 mg/kg): 50.4 µM·h
- half-life ([1]; kidney, 30 mg/kg): 2.53 h
- AUC(0-t) ([1]; kidney, 60 mg/kg): 138 µM·h
- half-life ([1]; kidney, 60 mg/kg): 3.57 h
- AUC(0-t) ([1]; kidney, 90 mg/kg): 227 µM·h
- half-life ([1]; kidney, 90 mg/kg): 2.51 h
- AUC(0-t) ([1]; liver, 30 mg/kg): 84.9 µM·h
- half-life ([1]; liver, 30 mg/kg): 2.48 h
- half-life ([1]; liver, 60 mg/kg): 2.75 h
- AUC(0-t) ([1]; liver, 90 mg/kg): 261 µM·h
- half-life ([1]; liver, 90 mg/kg): 1.91 h
- AUC(0-t) ([1]; lung, 30 mg/kg): 92.4 µM·h
- half-life ([1]; lung, 30 mg/kg): 2.39 h
- half-life ([1]; lung, 60 mg/kg): 3.04 h
- AUC(0-t) ([1]; lung, 90 mg/kg): 623 µM·h
- half-life ([1]; lung, 90 mg/kg): 1.72 h
- AUC(0-t) ([1]; plasma, 30 mg/kg): 12 µM·h
- half-life ([1]; plasma, 30 mg/kg): 2.73 h
- AUC(0-t) ([1]; plasma, 60 mg/kg): 24.1 µM·h
- half-life ([1]; plasma, 60 mg/kg): 3.42 h
- AUC(0-t) ([1]; plasma, 90 mg/kg): 48.2 µM·h
- half-life ([1]; plasma, 90 mg/kg): 2.36 h
- AUC(0-t) [1, 11]: 2.74 µM·h
- half-life [1, 11]: 3.88 h
- AUC(0-t) [1, 12]: 9.52 µM·h
- half-life [1, 12]: 2.57 h
- AUC(0-t) [1, 13]: 18.9 µM·h
- half-life [1, 13]: 1.55 h
- dose linearity of pharmacokinetics ([1]; all tissues, 30–90 mg/kg dose range, dose-dependent increase in AUC0–16 h and constant CL): linear pharmacokinetics
- Metabolism rate constant Intestine ([2]; calculated as 2 % of liver metabolism): 2.5 ^e h^−1
- Absorption rate constant Lumen → Intestine [2, 14]: 0.237 (2) h^−1
- Metabolism rate constant Liver [2, 14]: 127 (13) h^−1
- Partition coefficient Brain:plasma [2, 15]: 10 (19) Ratio
- Partition coefficient Intestine:plasma [2, 15]: 531 (31) Ratio
- Partition coefficient Kidney:plasma [2, 15]: 1,064 (18) Ratio
- Partition coefficient Liver:plasma [2, 15]: 12 (20) Ratio
- Partition coefficient Lung:plasma [2, 15]: 1,643 (19) Ratio
- Partition coefficient Slowly perfused:plasma [2, 15]: 65 (20) Ratio
- Partition coefficient Brain:plasma ([3]; human PBPK model parameter): 10 Ratio
- Partition coefficient Intestine:plasma ([3]; human PBPK model parameter): 531 Ratio
- Partition coefficient Kidney:plasma ([3]; human PBPK model parameter): 1,064 Ratio
- Partition coefficient Liver:plasma ([3]; human PBPK model parameter): 12 Ratio
- Partition coefficient Lung:plasma ([3]; human PBPK model parameter): 1,643 Ratio
- Partition coefficient Slowly perfused:plasma ([3]; human PBPK model parameter): 65 Ratio
- Metabolism rate constant Intestine ([3]; human, calculated as 1.3 % of liver metabolism): 0.975 ^f h^−1
- AUC(0-t) [4]: 2.7 µM·h
- half-life [4]: 9.5 h
- bound to albumin and alpha-1 acid glycoprotein [5]: > 99%
- Percent unbound ([5]; plasma, value set in PBPK model): 1%
- unbound fraction of drug in the plasma ([5]; value set in PBPK model): 0.01
- Observed Tmax ([6]; 25 mg multiple dose, healthy, fasted, median (range)): 2.7 (2.5–4.0) ^e h
- Observed Tmax ([6]; 100 mg multiple dose, healthy, fasted, median (range)): 3.0 (2.0–6.0) ^e h
- Observed Tmax ([6]; 175 mg single dose, healthy, fasted, median (range)): 3.0 (2.0–4.0) ^f h
- Observed Tmax ([6]; 1,200 mg multiple dose, cancer, fasted, median (95 % CI)): 3.6 (3.0–7.9) ^f h
- Observed Tmax ([6]; 1,200 mg single dose, cancer, fasted, median (95 % CI)): 3.5 (2.1–6.0) ^g h
- Observed Tmax ([6]; 1,250 mg multiple dose, cancer, fasted, median (range)): 3.0 (1.5–8.0) ^f h
- Observed Tmax ([6]; 1,250 mg multiple dose, cancer, not fasted, median (range)): 3.0 (2.6–8.0) ^f h
- Observed Tmax ([6]; 1,500 mg multiple dose, cancer, fasted, median (range)): 3.0 (0.0–12.2) ^f h
- Observed Tmax ([6]; 1,500 mg multiple dose, cancer, not fasted, median (range)): 3.4 (0.0–6.0) ^f h
- Observed Tmax ([6]; 1,600 mg multiple dose, cancer, fasted, median (95 % CI)): 5.1 (0.9–8.0) ^g h
- Observed Tmax ([6]; 1,800 mg multiple dose, cancer, fasted, median (95 % CI)): 3.9 (3.0–7.9) ^g h
- Observed Tmax ([6]; 1,800 mg single dose, cancer, fasted, median (95 % CI)): 3.9 (3.0–8.0) ^g h
- central nervous system (CNS) penetration [7]: poor central nervous system (CNS) penetration
- burden of metastatic breast cancer cells in the brain [8]: reduce the burden of metastatic breast cancer cells in the brains of mice
- CNS antitumor activity [9]: modest CNS antitumor activity
- adverse reactions observed in clinical trials [10]: decreased left ventricular ejection fraction, QT prolongation, hepatotoxicity, diarrhea and interstitial lung disease/pneumonitis

Structure (SMILES): Cc1ncc2n1-c1ccc(Cl)cc1C(c1ccccc1F)=NC2 [midazolam]
- microsomal intrinsic clearance (CYP3A; human liver): 15800 mL/min
- microsomal intrinsic clearance (CYP3A; human small intestine): 213.7 mL/min
- small intestine microsomal intrinsic clearance as percent of liver (CYP3A; human): 1.35%
